# Legend:
# Format in all cases: binding
# panel of 442 kinases [1] = biological target: T1, panel of 442 kinases (Homo sapiens, UniProt P33981); details: kinase TTK; compound concentration 10 µM
# T1 construct: purchased KINOMEscan
# T1 sequence (P33981 1-857): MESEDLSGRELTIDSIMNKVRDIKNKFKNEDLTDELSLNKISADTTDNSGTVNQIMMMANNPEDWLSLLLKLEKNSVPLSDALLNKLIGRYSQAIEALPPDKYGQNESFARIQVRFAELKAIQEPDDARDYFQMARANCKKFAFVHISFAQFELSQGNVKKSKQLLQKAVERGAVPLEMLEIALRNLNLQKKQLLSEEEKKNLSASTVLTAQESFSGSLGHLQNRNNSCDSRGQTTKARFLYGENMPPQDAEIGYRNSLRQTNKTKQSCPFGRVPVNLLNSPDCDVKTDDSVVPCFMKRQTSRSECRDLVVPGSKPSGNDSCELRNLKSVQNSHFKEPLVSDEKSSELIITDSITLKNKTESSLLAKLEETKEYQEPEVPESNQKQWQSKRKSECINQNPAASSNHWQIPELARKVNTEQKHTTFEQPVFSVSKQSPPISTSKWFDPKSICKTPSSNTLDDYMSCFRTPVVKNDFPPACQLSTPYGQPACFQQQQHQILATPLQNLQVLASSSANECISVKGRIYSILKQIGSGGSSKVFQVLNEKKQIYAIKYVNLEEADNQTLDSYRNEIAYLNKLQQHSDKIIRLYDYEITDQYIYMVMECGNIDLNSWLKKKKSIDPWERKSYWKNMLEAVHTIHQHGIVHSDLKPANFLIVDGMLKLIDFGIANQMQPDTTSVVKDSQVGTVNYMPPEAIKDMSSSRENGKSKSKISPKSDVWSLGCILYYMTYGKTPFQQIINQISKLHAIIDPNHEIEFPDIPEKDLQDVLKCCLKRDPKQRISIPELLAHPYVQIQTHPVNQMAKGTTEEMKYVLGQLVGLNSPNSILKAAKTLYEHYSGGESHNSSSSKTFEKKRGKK
# From the text: (§1) We assessed the selectivity of members of this scaffold using the KINOMEscan methodology across a near comprehensive panel of 442 kinases [[18,27]].
# panel of 442 kinases [2] = biological target: T2, panel of 442 kinases (Homo sapiens, UniProt O75460); details: Compound Concentration 10 µM
# T2 construct: purchased KINOMEscan
# From the text: as §1
# panel of 442 kinases [3] = biological target: T3, panel of 442 kinases (Homo sapiens, UniProt Q00526); details: Compound Concentration 10 µM
# T3 construct: purchased KINOMEscan
# From the text: as §1
# T3 sequence (Q00526 whole entry): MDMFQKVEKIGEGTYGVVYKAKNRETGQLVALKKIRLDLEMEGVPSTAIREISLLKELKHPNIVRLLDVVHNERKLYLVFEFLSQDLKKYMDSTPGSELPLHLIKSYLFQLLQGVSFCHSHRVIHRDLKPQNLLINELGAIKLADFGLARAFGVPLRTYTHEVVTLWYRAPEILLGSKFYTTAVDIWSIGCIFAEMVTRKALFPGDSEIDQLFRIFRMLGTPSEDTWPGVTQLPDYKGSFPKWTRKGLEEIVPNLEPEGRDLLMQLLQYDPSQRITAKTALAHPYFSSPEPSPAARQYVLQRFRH
# T2 sequence (O75460 19-977): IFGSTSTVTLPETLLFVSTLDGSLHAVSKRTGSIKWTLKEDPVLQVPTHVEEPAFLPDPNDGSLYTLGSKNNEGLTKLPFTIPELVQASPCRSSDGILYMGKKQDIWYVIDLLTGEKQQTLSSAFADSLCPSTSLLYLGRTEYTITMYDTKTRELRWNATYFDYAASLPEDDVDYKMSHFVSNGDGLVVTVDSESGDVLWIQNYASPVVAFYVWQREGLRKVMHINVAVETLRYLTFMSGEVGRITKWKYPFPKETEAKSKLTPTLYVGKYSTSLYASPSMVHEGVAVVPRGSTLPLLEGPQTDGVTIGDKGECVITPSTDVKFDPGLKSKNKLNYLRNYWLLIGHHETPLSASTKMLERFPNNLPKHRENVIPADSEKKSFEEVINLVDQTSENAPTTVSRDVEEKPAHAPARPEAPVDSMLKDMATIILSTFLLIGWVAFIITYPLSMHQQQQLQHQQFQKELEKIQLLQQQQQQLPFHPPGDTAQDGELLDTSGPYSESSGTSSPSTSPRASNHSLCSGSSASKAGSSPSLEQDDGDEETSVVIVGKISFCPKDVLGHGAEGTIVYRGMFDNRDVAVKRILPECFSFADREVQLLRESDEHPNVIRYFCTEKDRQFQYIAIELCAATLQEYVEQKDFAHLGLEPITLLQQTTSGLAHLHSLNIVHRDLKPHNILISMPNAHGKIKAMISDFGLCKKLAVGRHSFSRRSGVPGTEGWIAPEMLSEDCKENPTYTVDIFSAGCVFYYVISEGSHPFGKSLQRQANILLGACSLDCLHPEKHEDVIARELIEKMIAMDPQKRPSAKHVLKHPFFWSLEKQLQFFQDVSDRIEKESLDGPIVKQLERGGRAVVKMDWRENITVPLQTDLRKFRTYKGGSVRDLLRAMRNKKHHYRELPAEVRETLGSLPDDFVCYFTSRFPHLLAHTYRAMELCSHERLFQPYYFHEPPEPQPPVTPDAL
smiles,measurement,setting,value
COc1cc(C(=O)N2CCC(N3CCN(C)CC3)CC2)ccc1Nc1ncc2c(n1)N(C)c1ccccc1C(=O)N2C [15 (LRRK2-IN-1)],"% Ctrl, TTK",panel of 442 kinases [1],28 % Ctrl
same,KINOMEscan: ERN1,panel of 442 kinases [2],59
same,KINOMEscan: CDK3,panel of 442 kinases [3],100
COc1cc(C(=O)N2CCC(N3CCN(C)CC3)CC2)ccc1Nc1ncc2c(n1)N1CCc3cccc(c31)C(=O)N2C [Compound 24],"% Ctrl, TTK",panel of 442 kinases [1],46 % Ctrl
"COc1cc(C(=O)N2CCC(N3CCN(C)CC3)CC2)ccc1Nc1ncc2c(n1)N(C1CCCC1)c1ccccc1C(=O)N2C [Compound 25, 11-cyclopentyl-2-((2-methoxy-4-(4-(4-methylpiperazin-1-yl)piperidine-1-carbonyl)phenyl)amino)-5-methyl-5H-benzo[e]pyrimido[5,4-b][1,4]diazepin-6(11H)-one]","% Ctrl, TTK",panel of 442 kinases [1],94 % Ctrl
same,KINOMEscan: ERN1,panel of 442 kinases [2],96
same,KINOMEscan: CDK3,panel of 442 kinases [3],100
CCOc1cc(C(=O)N2CCC(N3CCN(C)CC3)CC2)ccc1Nc1ncc2c(n1)N(C1CCCC1)c1ccccc1C(=O)N2C [Compound 26],"% Ctrl, TTK",panel of 442 kinases [1],49 % Ctrl
same,KINOMEscan: ERN1,panel of 442 kinases [2],87
same,KINOMEscan: CDK3,panel of 442 kinases [3],100

# Source: paper PMC3914206
